Results from patent publication US5719291A, “Cyclohexane derivatives” (Hoffmann-La Roche Inc., priority 1991, dated 1998).
≈ marks a conversion by molar mass, not a printed value. Counter-ions that a name gives are not always drawn. Like-named read-outs stand apart in the source and are kept apart here.

What was measured:
Type in all cases: cell-based
[1] = system: Aspergillus fumigatus; assay: In vitro antifungal activity, MIC (Method A); conditions: 3 days, 27° C.; for MIC: Aspergillus fumigatus, 72 h; for Antifungal activity MIC: 1×10^5 cells/ml, pH 7.0
Protocol: (§1) The in vitro antifungal activities of representative compounds of the present invention were measured by determining the minimal inhibitory concentration (MIC), which is the concentration of an antifungal at which no fungal growth can be observed.
(§2) The MICs were determined by the microbroth dilution procedure according to NCCLS with the following minor modifications (Galgiani et al., Antimicrob. Agents Chemother., 33, 731 (1989). The medium was solidified with 0.2% low melting point agarose and buffered to pH 7.0 with 0.25%: K2 HPO4 in Yeast Nitrogen Base (Difco Lab.). Inoculum size was 1×10^5 cells/ml, and incubation was carried out for 3 days at 27° C. The MICs ([…]) are shown in Table 1. The reference compound is compound (IA) in U.S. Pat. No. 4,952,604. The compounds used are identified by reference to the Examples in which they were prepared.
(§3) The in vitro antifungal activities of the representative compounds of the present invention shown in Table 1 and Table 2 were measured by determining the minimal inhibitory concentrations (MIC: Method A) or 80% growth inhibition concentration (IC80 : Method B) respectively. MIC is defined as the concentration of an antifungal at which growth of fungi is not observed and IC80 is the concentration where cell turbidity measured at OD630 is reduced by 80%.
(§4) Antifungal activities were determined by either method A or B (see below) using microtest plates according NCCLS with minor modifications (Galgiani et at., Antimicrob. Agents Chemother. 33, 731 (1989)).
(§5) (Method A) The medium was solidified with 0.2% low melting point agarose and buffered to pH 7.0 with 0.25% K2 HPO4 in Yeast Nitrogen Base (Difco Lab.). Inoculum size was 1×10^5 cells/ml, and incubation was carried out for 3 days at 27° C. The reference compound is compound (IA) in U.S. Pat. No. 4,952,604.

[2] = system: Candida albicans; assay: In vitro antifungal activity, MIC (Method A); conditions: 3 days, 27° C.; for MIC: Candida albicans, 72 h; for Antifungal activity MIC: 1×10^5 cells/ml, pH 7.0
Protocol: as §1, §2, §3, §4, §5

[3] = system: Cryptococcus neoformans; assay: In vitro antifungal activity, MIC (Method A); conditions: 3 days, 27° C.; for MIC: Cryptococcus neoformans, 72 h; for Antifungal activity MIC: 1×10^5 cells/ml, pH 7.0
Protocol: as §1, §2, §3, §4, §5

[4] = system: C. neoformans; assay: In vitro antifungal activity, IC80 (Method B); conditions: Cryptococcus neoformans, 1-2 days, 27° C., read-out: Antifungal activity IC80
Protocol: as §3, §4
(§6) (Method B) The medium for yeast was buffered to pH 7.0 with 0.25% K2 HPO4 in Yeast Nitrogen Base (Difco Lab.). For the filamentous fungi, 0.2% of low melting point agar was supplemented to the above medium. Inoculum size was 1×10^4 cells/ml, and incubation was carried out for 1-2 days at 27° C. Fluconazole (Pfizer) was used as reference.

[5] = system: A. fumigatus; assay: In vitro antifungal activity, IC80 (Method B); conditions: Aspergillus fumigatus, 1×10^4 cells/ml, 1-2 days, 27° C., 0.2% agar, read-out: Antifungal activity IC80
Protocol: as §3, §4, §6

[6] = system: Candida albicans; assay: In vitro antifungal activity, IC80 (Method B); conditions: 1-2 days, 27° C., read-out: Antifungal activity IC80
Protocol: as §3, §4, §6

[7] = pH 7, Aspergillus fumigatus CF1003, 1×10^5 cells/ml
[8] = pH 7, Aspergillus fumigatus CF1004, 1×10^5 cells/ml
[9] = pH 7, Aspergillus fumigatus CF1023, 1×10^5 cells/ml
[10] = pH 7, Candida albicans CY1002, 1×10^5 cells/ml
[11] = pH 7, Candida albicans CY1005, 1×10^5 cells/ml
[12] = pH 7, Candida albicans CY3003, 1×10^5 cells/ml
[13] = pH 7, Cryptococcus neoformans CY1057, 1×10^5 cells/ml
[14] = pH 7, Cryptococcus neoformans CY1059, 1×10^5 cells/ml
[15] = pH 7, Cryptococcus neoformans CY1061, 1×10^5 cells/ml
[16] = pH 7, C. neoformans CY1057, 1×10^4 cells/ml
[17] = pH 7, C. neoformans CY1059, 1×10^4 cells/ml
[18] = pH 7, Candida albicans CY1002, 1×10^4 cells/ml
[19] = pH 7, Candida albicans CY1005, 1×10^4 cells/ml
[20] = pH 7, Candida albicans CY3003, 1×10^4 cells/ml

Row | Molecule | MIC [1, 7] | MIC [1, 8] | MIC [1, 9] | MIC [2, 10] | MIC [2, 11] | MIC [2, 12] | MIC [3, 13] | MIC [3, 14] | MIC [3, 15] | IC80 [4, 16] | IC80 [4, 17] | IC80 ([5]; A. fumigatus CF1003) | IC80 ([5]; A. fumigatus CF1004) | IC80 [6, 18] | IC80 [6, 19] | IC80 [6, 20] | other results
1 | CCCCCCCCC[C@@H]1OC[C@@H](C)[C@H](OC)[C@@H]1OC(=O)CN.O=C(O)C(F)(F)F [Example 43, (2S,3R,4S,5R)-4-methoxy-5-methyl-2-nonyltetrahydro-2H-pyran-3-yl glycinate trifluoroacetic acid salt] | 50 µg/mL | 50 µg/mL | 25 µg/mL | 50 µg/mL | 25 µg/mL | 25 µg/mL | 6.25 µg/mL | 6.25 µg/mL | 12.5 µg/mL |  |  |  |  |  |  |  | 
2 | CCCCCCC/C=C/[C@@H]1OC[C@H](C)C2(OCCO2)[C@H]1OC(=O)CN.O=C(O)C(F)(F)F [Example 46, (6S,7S,10S)-10-methyl-7-[(E)-1-nonenyl]-1,4,8-trioxaspiro[4,5]decan-6-yl glycinate trifluoroacetic acid salt] | 25 µg/mL | 25 µg/mL | 25 µg/mL | 50 µg/mL | 25 µg/mL | 25 µg/mL | 25 µg/mL | 50 µg/mL | 50 µg/mL |  |  |  |  |  |  |  | 
3 | CCCCC/C=C/C=C/[C@@H]1OC[C@H](C)[C@H](OC)[C@H]1OC(=O)CN.O=CO [Example 47, (2S,3R,4S,5S)-4-methoxy-5-methyl-2-[(1E,3E)-1,3-nonadienyl]tetrahydro-2H-pyran-3-yl glycinate formic acid salt] | 25 µg/mL | 25 µg/mL | 25 µg/mL | 100 µg/mL | 100 µg/mL | 100 µg/mL | 12.5 µg/mL | 12.5 µg/mL | 25 µg/mL |  |  |  |  |  |  |  | 
4 | CCCCCCCCO[C@@H]1CCC(C)(C)[C@H](OC)[C@H]1NC(=O)CN [Example 54, (1R,2S,3S)-2-[(aminoacetyl)amino-4,4-dimethyl-3-methoxy-1-octyloxycyclohexanetrifluoroacetic acid salt] |  |  |  |  |  |  |  |  |  | 46 µg/mL | 47 µg/mL | 150 µg/mL | 140 µg/mL | 18 µg/mL | 12 µg/mL | 18 µg/mL | 
5 | COc1ccc(CC[C@@H]2CCC(C)(C)[C@H](OC)[C@H]2NC(=O)CN)cc1 [Example 55, (1R,2S,3S)-2-[(aminoacetyl)amino]-4-47dimethyl-3-methoxy-1-[2-(4-methoxyphenyl)ethyl]cyclohexane trifluoroacetic acid salt] |  |  |  |  |  |  |  |  |  | 170 µg/mL | 150 µg/mL | > 200 µg/mL | > 200 µg/mL | 49 µg/mL | 69 µg/mL | 50 µg/mL | 
6 | CCCCCCCCC[C@@H]1OC[C@H](C)C=C1Cn1ccnc1 [Example 59, 1-[[(2S,5R)-5,6-dihydro-5-methyl-2-nonyl-2H-pyran-3-yl]methyl]-1H-imidazole] | 3.13 µg/mL (≈ 10.3 µM) | 12.5 µg/mL (≈ 41.1 µM) | 12.5 µg/mL (≈ 41.1 µM) | 50 µg/mL (≈ 164 µM) | 25 µg/mL (≈ 82.1 µM) | 25 µg/mL (≈ 82.1 µM) | 3.13 µg/mL (≈ 10.3 µM) | 6.25 µg/mL (≈ 20.5 µM) | 3.13 µg/mL (≈ 10.3 µM) |  |  |  |  |  |  |  | 
7 | CCCCCCCCO[C@@H]1CCC(C)(C)[C@H](OC)[C@@H]1Cn1ccnc1 [Example 68, 1-[[(1R,2R,6R)-2-methoxy-3,3-dimethyl-6-octyloxy-cyclohexyl]methyl]-1H-imidazole] | 6.25 µg/mL (≈ 17.8 µM) | 12.2 µg/mL (≈ 34.9 µM) | 6.25 µg/mL (≈ 17.8 µM) | 25 µg/mL (≈ 71.3 µM) | 12.5 µg/mL (≈ 35.7 µM) | 12.5 µg/mL (≈ 35.7 µM) | 0.39 µg/mL (≈ 1.11 µM) | 0.78 µg/mL (≈ 2.23 µM) | 3.13 µg/mL (≈ 8.93 µM) |  |  |  |  |  |  |  | 
8 | CO[C@@H]1[C@@H](Cn2cncn2)[C@H](CCc2ccc(N(C)C)cc2)CCC1(C)C [Example 71] |  |  |  |  |  |  |  |  |  | 1.2 µg/mL (≈ 3.24 µM) | 1.9 µg/mL (≈ 5.13 µM) | 32 µg/mL (≈ 86.4 µM) | 37 µg/mL (≈ 99.9 µM) | 0.03 µg/mL (≈ 0.081 µM) | 0.094 µg/mL (≈ 0.254 µM) | 0.036 µg/mL (≈ 0.0972 µM) | 
9 | CO[C@@H]1[C@@H](Cn2cncn2)[C@H](CCc2ccc(Cl)cc2)CCC1(C)C [Example 72, 1-[[(1R,2R,6R)-6-[2-(4-chlorophenyl)ethyl]-2-methoxy-3,3-dimethylcyclohexyl]methyl]-1H-1,2,4-triazole] |  |  |  |  |  |  |  |  |  | 1.3 µg/mL (≈ 3.59 µM) | 4.8 µg/mL (≈ 13.3 µM) | 14 µg/mL (≈ 38.7 µM) | 12 µg/mL (≈ 33.2 µM) | 0.095 µg/mL (≈ 0.262 µM) | 0.094 µg/mL (≈ 0.26 µM) | 0.06 µg/mL (≈ 0.166 µM) | 
10 | (2S,3R,4S,5R)-5-butoxy-4-methoxy-2-[(E)-1-nonenyl]tetra-hydro-2H-pyran-3-ylglycinate trifluoroacetic acid salt [Example 35] |  |  |  |  |  |  |  |  |  |  |  |  |  |  |  |  | Antifungal activity MIC ([1]; Aspergillus fumigatus CF1003): 25 µg/mL; Antifungal activity MIC ([1]; Aspergillus fumigatus CF1004): 25 µg/mL; Antifungal activity MIC ([1]; Aspergillus fumigatus CF1023): 25 µg/mL; Antifungal activity MIC ([2]; Candida albicans CY1002): 25 µg/mL; Antifungal activity MIC ([2]; Candida albicans CY1005): 25 µg/mL; Antifungal activity MIC ([2]; Candida albicans CY3003): 50 µg/mL; Antifungal activity MIC ([3]; Cryptococcus neoformans CY1057): 3.13 µg/mL; Antifungal activity MIC ([3]; Cryptococcus neoformans CY1059): 6.25 µg/mL; Antifungal activity MIC ([3]; Cryptococcus neoformans CY1061): 12.5 µg/mL
11 | (2S,3R,4S,5S)-4-methoxy-5-methyl-2-[(E)-1-nonenyl]tetra-hydro-2H-pyran-3-ylglycinate trifluoroacetic acid salt [Example 24] |  |  |  |  |  |  |  |  |  |  |  |  |  |  |  |  | Antifungal activity MIC ([1]; Aspergillus fumigatus CF1003): 50 µg/mL; Antifungal activity MIC ([1]; Aspergillus fumigatus CF1004): 25 µg/mL; Antifungal activity MIC ([1]; Aspergillus fumigatus CF1023): 50 µg/mL; Antifungal activity MIC ([2]; Candida albicans CY1002): 50 µg/mL; Antifungal activity MIC ([2]; Candida albicans CY1005): 100 µg/mL; Antifungal activity MIC ([2]; Candida albicans CY3003): 50 µg/mL; Antifungal activity MIC ([3]; Cryptococcus neoformans CY1057): 25 µg/mL; Antifungal activity MIC ([3]; Cryptococcus neoformans CY1059): 25 µg/mL; Antifungal activity MIC ([3]; Cryptococcus neoformans CY1061): 50 µg/mL
